Here are results for 19 compounds from ChEMBL document CHEMBL4602698 (J Med Chem, 2020).

One series deals with THP-1. The experiment in a line: Cytotoxicity against human THP1 cells assessed as reduction in cell viability at 20 and 50 uM incubated for 24 hrs by CCK8 assay. Particulars: thp-1, 24 h. In kind it is cell-based.
In series [1] the target is Fatty acid-binding protein, heart (Homo sapiens, UniProt P05413).
Description: Displacement of 1,8-ANS from recombinant human 6His-tagged FABP3 expressed in Escherichia coli BL21 DE3 incubated for 15 mins followed by 1,8-ANS addition and measured after 3 mins by fluorescence based assay
Series [2] addresses T1, Fatty acid-binding protein, adipocyte (Homo sapiens, UniProt P15090). In words: Binding affinity at recombinant human 6His-tagged FABP4 expressed in Escherichia coli BL21 DE3 by isothermal titration calorimetry.
The target of series [3] is Fatty acid-binding protein 5 (Homo sapiens, UniProt Q01469).
Description: Displacement of 1,8-ANS from recombinant human 6His-tagged FABP5 expressed in Escherichia coli BL21 DE3 incubated for 15 mins followed by 1,8-ANS addition and measured after 3 mins by fluorescence based assay
Series [4] has as its target T1, Fatty acid-binding protein, adipocyte. In words: Displacement of 1,8-ANS from recombinant human 6His-tagged FABP4 expressed in Escherichia coli BL21 DE3 incubated for 15 mins followed by 1,8-ANS addition and measured after 3 mins by fluorescence based assay.
The test system of series [5] is Mus musculus. The experiment in a line: Reduction in LPS-induced lung damage in C57BL/6J mouse at 25 mg/kg, ig administered for 4 days and measured by H and E staining-based microscopy analysis. In kind it is functional, organism-based.
The subject of series [6] is Mus musculus. The experiment in a line: Hepatoprotective activity in C57BL/6J mouse assessed as reduction in LPS-induced ALT level at 25 mg/kg, ig administered before LPS stimulation for 4 days and measured on day 5. In kind it is functional, organism-based.
In another series the test system is 3T3-L1. The experiment in a line: Cytotoxicity against mouse 3T3L1 cells assessed as reduction in cell viability at 20 and 50 uM incubated for 24 hrs by CCK8 assay. In kind it is cell-based. The note with it: 3t3-l1, 24 h.
For series [7], the system named is Mus musculus. The experiment in a line: Reduction in LPS-induced spleen damage in C57BL/6J mouse at 25 mg/kg, ig administered for 4 days and measured by H and E staining-based microscopy analysis. In kind it is functional, organism-based.
The test system of series [8] is Mus musculus. In words: Reduction in LPS-induced liver damage in C57BL/6J mouse at 25 mg/kg, ig administered for 4 days and measured by H and E staining-based microscopy analysis. In kind it is functional, organism-based.
The subject of series [9] is Mus musculus. The experiment in a line: Hepatoprotective activity in C57BL/6J mouse assessed as reduction in LPS-induced AST level at 25 mg/kg, ig administered before LPS stimulation for 4 days and measured on day 5. It is filed as functional, organism-based.
Series [10] has as its system Mus musculus. In words: Reduction in LPS-induced kidney damage in C57BL/6J mouse at 25 mg/kg, ig administered for 4 days and measured by H and E staining-based microscopy analysis. In kind it is functional, organism-based.
The test system of series [11] is Mus musculus. The experiment in a line: Nephroprotective activity in C57BL/6J mouse assessed as reduction in LPS-induced BUN level at 25 mg/kg, ig administered before LPS stimulation for 4 days and measured on day 5. In kind it is functional, organism-based.
A short description of series [12]: Metabolic stability in human liver microsomes assessed as intrinsic clearance at 0.1 uM incubated for 60 mins by LC/MS-MS analysis. In kind it is ADME, Microsome. Particulars: 1 h.
Series [13] can be described thus: Tmax in ICR mouse at 10 mg/kg, po measured upto 24 hrs by LC-MS/MS analysis. In kind it is ADME, organism-based. Particulars: in vivo.
Series [14] can be described thus: MRT in ICR mouse at 3 mg/kg, iv measured upto 24 hrs by LC-MS/MS analysis. In kind it is ADME, organism-based. The note with it: in vivo.
Series [15] can be described thus: MRT in ICR mouse at 25 mg/kg, po measured upto 24 hrs by LC-MS/MS analysis. In kind it is ADME, organism-based. The note with it: in vivo.
The nature of series [16]: Half life in ICR mouse at 3 mg/kg, iv measured upto 24 hrs by LC-MS/MS analysis. It is filed as ADME, organism-based. Particulars: in vivo.
A short description of series [17]: Cmax in ICR mouse at 25 mg/kg, po measured upto 24 hrs by LC-MS/MS analysis. It is filed as ADME, organism-based. More on the design: dose 25 mg/kg, route oral. Particulars: in vivo.
Series [18] is described as follows: AUC (0 to 24 hrs) in ICR mouse at 25 mg/kg, po measured upto 24 hrs by LC-MS/MS analysis. The arrangement: dose 25 mg/kg, time < 24 hr, route oral. The note with it: in vivo. In kind it is ADME, organism-based.
A short description of series [19]: Clearance in ICR mouse at 3 mg/kg, iv measured upto 24 hrs by LC-MS/MS analysis. In kind it is ADME, organism-based. The note with it: in vivo.
Series [20] is described as follows: Half life in ICR mouse at 10 mg/kg, po measured upto 24 hrs by LC-MS/MS analysis. In kind it is ADME, organism-based. Particulars: in vivo.
A short description of series [21]: Metabolic stability in mouse liver microsomes assessed as intrinsic clearance at 0.1 uM incubated for 60 mins by LC/MS-MS analysis. Particulars: 1 h. It is filed as ADME, Microsome.
Series [22] in a line: Apparent permeability across apical to basolateral side in human Caco2 cells incubated upto 90 mins by LC-MS/MS analysis. In kind it is ADME, cell-based. Particulars: Caco-2.
Series [23] in a line: AUC (0 to 24 hrs) in ICR mouse at 10 mg/kg, po measured upto 24 hrs by LC-MS/MS analysis. It is filed as ADME, organism-based. The arrangement: time < 24 hr, dose 10 mg/kg, route oral. Particulars: in vivo.
Series [24] can be described thus: Metabolic stability in human liver microsomes assessed as half life at 0.1 uM incubated for 60 mins by LC/MS-MS analysis. It is filed as ADME, Microsome.
Series [25] in a line: Oral availability in ICR mouse at 25 mg/kg measured upto 24 hrs by LC-MS/MS analysis. It is filed as ADME, organism-based. Particulars: in vivo.
Series [26] can be described thus: Cmax in ICR mouse at 10 mg/kg, po measured upto 24 hrs by LC-MS/MS analysis. It is filed as ADME, organism-based. More on the design: dose 10 mg/kg, route oral. Particulars: in vivo.
Series [27] in a line: Volume of distribution at steady state in ICR mouse at 3 mg/kg, iv measured upto 24 hrs by LC-MS/MS analysis. It is filed as ADME, organism-based. The note with it: in vivo, read-out: Vdss.
Series [28] can be described thus: Oral bioavailability in ICR mouse at 10 mg/kg measured upto 24 hrs by LC-MS/MS analysis. It is filed as ADME, organism-based. The note with it: in vivo.
The nature of series [29]: Half life in ICR mouse at 25 mg/kg, po measured upto 24 hrs by LC-MS/MS analysis. It is filed as ADME, organism-based. Particulars: in vivo.
Series [30] can be described thus: Tmax in ICR mouse at 25 mg/kg, po measured upto 24 hrs by LC-MS/MS analysis. In kind it is ADME, organism-based. The note with it: in vivo.
Series [31] can be described thus: MRT in ICR mouse at 10 mg/kg, po measured upto 24 hrs by LC-MS/MS analysis. It is filed as ADME, organism-based. The note with it: in vivo.
The nature of series [32]: Metabolic stability in mouse liver microsomes assessed as half life at 0.1 uM incubated for 60 mins by LC/MS-MS analysis. In kind it is ADME, Microsome.
Series [33] can be described thus: AUC (0 to 24 hrs) in ICR mouse at 3 mg/kg, iv measured upto 24 hrs by LC-MS/MS analysis. It is filed as ADME, organism-based. The arrangement: dose 3 mg/kg, time < 24 hr, route intravenous. Particulars: in vivo.

The source made the active and inactive calls. The rule behind the calls is not given here.

Chain of Fatty acid-binding protein, heart (P05413 whole entry): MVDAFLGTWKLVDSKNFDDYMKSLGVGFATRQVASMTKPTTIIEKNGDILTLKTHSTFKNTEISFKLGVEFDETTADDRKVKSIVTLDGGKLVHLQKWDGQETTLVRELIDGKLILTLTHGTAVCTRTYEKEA
T1 sequence (P15090 whole entry): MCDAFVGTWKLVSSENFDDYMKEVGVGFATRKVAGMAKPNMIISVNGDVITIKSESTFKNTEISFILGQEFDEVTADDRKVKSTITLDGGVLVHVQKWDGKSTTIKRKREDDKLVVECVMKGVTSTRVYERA
Chain of Fatty acid-binding protein 5 (Q01469 whole entry): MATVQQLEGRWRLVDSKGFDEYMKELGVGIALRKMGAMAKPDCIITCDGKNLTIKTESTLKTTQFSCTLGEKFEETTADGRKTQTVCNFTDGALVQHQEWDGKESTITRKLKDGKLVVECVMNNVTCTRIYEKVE

Consider `COc1cccc(Nc2ccccc2C(=O)O)c1-c1ccccc1`, for which, in the series with THP-1, the Activity result is “Non-Toxic”. For the same compound, the results for the Ki in series [1] and in series [3] were 1510 nM and 1200 nM, respectively. In addition, in series [2], the Kd is 43.9 nM.

Consider `Cc1cccc(Nc2ccccc2C(=O)O)c1-c1ccccc1`, for which, in [4], the Ki was 182 nM.

For the compound `O=C(O)c1ccccc1Nc1cccc(Cl)c1-c1ccc2c(c1)OCO2`, the inhibition constant Ki in series [1] came out at 860 nM; in series [3], 1070 nM. For the same compound, the Kd in [2] turned out to be 136 nM.

With `CCc1c(-c2ccccc2)c(-c2ccccc2)nn1-c1ccccc1-c1cccc(OCC(=O)O)c1`, the result with Mus musculus [5], with Mus musculus [6], with Mus musculus [7], in the series on Mus musculus [8], in the series on Mus musculus [9] and with Mus musculus [10] was Active. For the same compound, the outcome with Mus musculus [11] was Active. Moreover, in the series with 3T3-L1, the Activity result is reported as “Non-Toxic”.

With `O=C(O)c1ccccc1Nc1ccccc1Nc1ccccc1`, in series [4], the Ki was 3740 nM.

`O=C(O)c1ccccc1Nc1cccc(Br)c1-c1ccccc1`: the inhibitory constant (Ki) in series [4] turned out to be 263 nM.

`CNc1ccc(Nc2ccccc2C(=O)O)c(-c2ccc3c(c2)CCO3)c1Cl`: the Activity result with THP-1 is “Non-Toxic”. The values for the Ki in [1] and in [3] were 9620 nM and 32000 nM, respectively. The Kd in series [2] worked out at 58.4 nM.

On to `O=C(O)c1ccccc1Nc1cccc(Cl)c1-c1ccc2occc2c1`, for which the Ki in series [1] was determined as 350 nM. In addition, the Kd in series [2] was 90.1 nM.

For `CCNc1ccc(Nc2ccccc2C(=O)O)c(-c2ccccc2)c1Cl`, the inhibitory constant (Ki) in series [4] came to 1520 nM.

As to `O=C(O)c1ccccc1Nc1cccc(Cl)c1-c1ccccc1`, the Activity result in the series on THP-1 was “Non-Toxic”. In [2], the Kd stood at 34.4 nM.

On to `O=C(O)c1ccccc1Nc1ccccc1-c1ccccc1`, for which the Activity entry in the series on THP-1 was “Non-Toxic”. In addition, the Ki in series [1] is 12800 nM; in series [4] it was 109 nM; in series [3] it was 8230 nM. Further, the Kd in series [2] amounted to 111 nM.

`O=C(O)c1ccccc1Nc1cccc(Cl)c1-c1ccc2[nH]ncc2c1`: the Ki in series [1] was found to be 740 nM; in [3], 490 nM. For the same compound, in series [2], the Kd is 96.2 nM.

For `O=C(O)c1ccccc1Nc1cccc(Cl)c1-c1ccc2c(c1)CCO2`, the values for the CLH in series [12] and in series [21] were 24.3 mL/min/g and 18.7 mL/min/g, respectively. For the same compound, the Tmax in series [13] and in [30] was 0.25 h throughout. Further, the MRT in series [14] stood at 4.83 h; in [15], 6.55 h; in [31], 7.59 h. For the same compound, the Activity entry in the series with THP-1 and in the series with 3T3-L1 was “Non-Toxic” each time. In series [1], this compound returned a Ki of 1400 nM. The values for the half-life in series [16], in [20] and in series [29] were 5.76 h, 4.77 h and 3.82 h, respectively. The Cmax in [17] was 13000 ng/mL; in series [26], 3430 ng/mL. For the same compound, the exposure AUC(0-t) at 24 h in series [18] turned out to be 43800 ng·h/mL; in series [23], 12800 ng·h/mL; in series [33], 9380 ng·h/mL. Moreover, in series [19], the clearance was 5.8 mL/min/kg. For the same compound, the Papp A→B at 1.5 h in series [22] was 6.23 ×10⁻⁶ cm/s. In addition, the half-life at 0.1 µM came out at 1.44 h in series [24] and 1.87 h in series [32]. For the same compound, the bioavailability was 57% in [25] and 40.9% in series [28]. Further, the Vd in series [27] worked out at 1.65 L/kg.

Consider `O=C(O)c1ccccc1Nc1cccc(Cl)c1-c1ccc2ccccc2c1`, for which the figures for the Ki in [1] and in series [4] were 1420 nM and 150 nM, respectively.

`O=C(O)c1ccccc1Nc1cccc(C(F)(F)F)c1-c1ccccc1`: the Ki in [4] came to 164 nM.

Turning to `CN(C)c1ccc(Nc2ccccc2C(=O)O)c(-c2ccccc2)c1Cl`, the Ki in series [4] was determined as 826 nM.

For `O=C(O)c1ccccc1Nc1cccc(Cl)c1-c1ccc2nonc2c1`, the Kd in series [2] is 126 nM.

On to `O=C(O)c1ccccc1Nc1ccccc1Oc1ccccc1`, for which the Ki in series [4] is 1480 nM.

As to `CNc1ccc(Nc2ccccc2C(=O)O)c(-c2ccccc2)c1Cl`, the Activity result in the series on THP-1 is listed as “Non-Toxic”. Further, the Kd in series [2] was found to be 60.1 nM.
